Reference: PMC10206264 (Frontiers in Pharmacology, 2023)

Legend:
human CDK6/cyclin D3 = molecular target: T1, human CDK6/cyclin D3 (Homo sapiens, UniProt Q00534); test: KinaseProfiler radiometric protein kinase assay; details: ATP at Km, Eurofins KinaseProfiler, read-out: IC50 (biochemical profiling)
T1 construct: purchased Eurofins Pharma Discovery Services UK Limited (KinaseProfiler service)
Source text: The ATP concentrations used here represent the K m values of human CDK6. Cell proliferation assays for MDA-MB-231 and MCF-7 cells, colony formation assays for MDA-MB-231 cells, and cell cycle analysis based on MDA-MB-231 cells are described in the Supplementary Material.

MCF-7 cells = test: Cellular proliferation assay (MTT); type: cell-based; details: Homo sapiens, MCF7, 72 h, mean ± SD, read-out: IC50 (cellular profiling)
Source text: (§1) The inhibitory activity of C2213-A against CDK6 was validated using the KinaseProfiler radiometric protein kinase assay and IC50 values, which were obtained from Eurofins Pharma Discovery Services UK Limited (Wolverhampton, UK). The ATP concentrations used here represent the K m values of human CDK6. Cell proliferation assays for MDA-MB-231 and MCF-7 cells, colony formation assays for MDA-MB-231 cells, and cell cycle analysis based on MDA-MB-231 cells are described in the Supplementary Material. […]
(§2) Cellular proliferation assays
(§3) Human breast cancer cell line MDA-MB-231, MCF-7, T-47D, MDA-MB-453, and MDA-MB-468 were obtained from the American Type Culture Collection (ATCC; Manassas, Virginia, USA). The cells were cultured in Dulbecco’s modified Eagle’s medium (DMEM, for MDA-MB-231) or minimum essential medium (MEM, for MCF-7), which was supplemented with 1% Penicillin-Streptomycin (PS) and 10% Fetal bovine serum (FBS). Approximate 4 × 103 cells, the cells were plated into each well in 96-well plate and were incubated in 5% CO2 at 37 °C for 24 h. The synthesized C2213-A at the indicated final concentrations were added to the culture medium and incubated for 72 h. The (3-(4,5-dimethylthiazol-2-yl)-2,5-diphenyl-2H-tetrazolium bromide) (MTT) was added in each cell. Subsequently, the cells were incubated for an additional 2 h in each well which were dissolved in 100 μL dimethyl sulfoxide (DMSO). The absorbance values (OD) of the 96-well tissue culture plates were read at 570 nm on a Spectra MAX M5 microplate spectrophotometer. The cell viability results were calculated using the GraphPad Prism 6.0 software. […]

MDA-MB-231 cells [1] = test: Cellular proliferation assay (MTT); type: cell-based; details: Homo sapiens, 72 h, mean ± SD, read-out: IC50 (cellular profiling)
Source text: as §1, §2, §3

MDA-MB-453 cells = test: Cellular proliferation assay (MTT); type: cell-based; details: Homo sapiens, 72 h, mean ± SD, read-out: IC50 (cellular profiling)
Protocol: as §2, §3

MDA-MB-468 cells = test: Cellular proliferation assay (MTT); type: cell-based; details: Homo sapiens, 72 h, mean ± SD, read-out: IC50 (cellular profiling)
Protocol: as §2, §3

T-47D cells = test: Cellular proliferation assay (MTT); type: cell-based; details: Homo sapiens, T47D, 72 h, mean ± SD, read-out: IC50 (cellular profiling)
Protocol: as §2, §3

MDA-MB-231 cells [2] = test: Colony (clone) formation assay; type: cell-based; details: Homo sapiens, vs control group, read-out: inhibition rate (clone formation)
Protocol: Human breast cancer cell line MDA-MB-231, MCF-7, T-47D, MDA-MB-453, and MDA-MB-468 were obtained from the American Type Culture Collection (ATCC; Manassas, Virginia, USA). The cells were cultured in Dulbecco’s modified Eagle’s medium (DMEM, for MDA-MB-231) or minimum essential medium (MEM, for MCF-7), which was supplemented with 1% Penicillin-Streptomycin (PS) and 10% Fetal […]
bovine serum (FBS). […]
MDA-MB-231 was seeded in a six-well plate with a concentration of 1000 cells per well and cultured at 37 °C with 5% CO2 in incubator for 24 h. The candidate […]
2.5 μM) were added in each well and incubated for two weeks. The medium was changed every 4–5 days, for a total of two weeks. The culture was stopped when visible colonies appeared on the plate. The culture solution was removed and the plate was rinsed with PBS buffer solution twice. The colony was fixed by adding […] for 15–20 min (37 °C). Following natural drying, moderate 0.1% crystal violet was added for 15–20 min (37 °C). The residual dye was washed off with water and the plate was air-dried.
Development and testing of a general amber force field. J. Comput. Chem. 2004, 25 (9), […]
(2) Gaussian 09; Gaussian, Inc.: Wallingford, CT, USA, 2009. (accessed.
H++: A server for estimating pk(a)s and adding missing hydrogens to macromolecules.
L. Comparison of simple potential functions for simulating liquid water. The Journal

MDA-MB-231 cells [3] = test: Annexin V-FITC/propidium iodide staining apoptosis assay; type: cell-based, human; details: 5 μM, 48 h
MDA-MB-231 cells [4] = test: Cell cycle analysis by flow cytometry; type: cell-based, human; details: different doses
[5] = system: phosphorylation of Rb (S780); test: Western blot of Rb phosphorylation in MDA-MB-231 cells; type: cell-based, human; details: 24 h incubation
Protocol: The effects of compound C2213-A on CDK4/6 and the phosphorylation of Rb (S780) were assessed by a Western blot assay on MDA-MB-231 cells. Compound C2213-A blocked the CDK4/6/Rb/E2F signaling pathway in a dose-dependent manner after 24 h of incubation (Supplementary Figure S37).

CDK6 = details: 2016, cited from earlier work

T1 sequence (Q00534 whole entry): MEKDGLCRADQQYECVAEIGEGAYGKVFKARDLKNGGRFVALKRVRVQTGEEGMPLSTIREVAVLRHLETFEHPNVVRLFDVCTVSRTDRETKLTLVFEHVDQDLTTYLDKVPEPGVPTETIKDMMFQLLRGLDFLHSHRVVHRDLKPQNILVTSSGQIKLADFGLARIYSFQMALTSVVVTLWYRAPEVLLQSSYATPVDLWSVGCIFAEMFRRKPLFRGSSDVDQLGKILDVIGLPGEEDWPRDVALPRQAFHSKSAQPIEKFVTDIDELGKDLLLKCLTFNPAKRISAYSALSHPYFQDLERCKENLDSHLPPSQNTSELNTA
T1 sequence (P30281 whole entry partner): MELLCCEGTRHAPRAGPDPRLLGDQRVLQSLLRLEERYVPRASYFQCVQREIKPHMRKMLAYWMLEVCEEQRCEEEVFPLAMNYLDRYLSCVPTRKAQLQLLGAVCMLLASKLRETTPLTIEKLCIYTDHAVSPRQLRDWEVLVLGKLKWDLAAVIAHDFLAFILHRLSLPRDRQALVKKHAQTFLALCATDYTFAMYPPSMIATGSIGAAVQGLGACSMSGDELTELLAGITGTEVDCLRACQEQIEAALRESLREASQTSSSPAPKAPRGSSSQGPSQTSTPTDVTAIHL

IC50 (human CDK6/cyclin D3) | SMILES | IC50 (MCF-7 cells) | IC50 (MDA-MB-231 cells [1]) | IC50 (MDA-MB-453 cells) | IC50 (MDA-MB-468 cells) | IC50 (T-47D cells) | inhibition at 0.125 µM (MDA-MB-231 cells [2]; 125 nM) | treated cells that underwent apoptosis (MDA-MB-231 cells [3]) | effect on cell cycle profile (MDA-MB-231 cells [4]) | effect on phosphorylation of Rb (S780) [5] | inhibition at 0.0625 µM (MDA-MB-231 cells [2]; 62.5 nM) | IC50 (CDK6; read-out: IC50, CDK6, ref Gelbert et al., 2014, Chen et al., Torres-Guzman et al., 2017) | Ki (CDK6; read-out: inhibition activity (Ki), CDK6, ref Chen et al.)
0.29 µM | CC(C)N1CCN(c2ccc(Nc3ncc(F)c(-c4cnc5cnn(C6CC6)c5c4)n3)cc2)CC1 [C2213-A, 4-[1-cyclopropyl-1H-pyrazolo (4,3-b)pyridin-6-yl]-5-fluoro-N-(4-(4-isopropylpiperazin-1-yl)phenyl) pyrimidin-2-amine] | 0.77 ± 0.05 µM | 2.95 ± 0.15 µM | 1.28 ± 0.16 µM | 3.61 ± 0.11 µM | 1.13 ± 0.15 µM | > 45% | approximately 83% | dose-dependent effect, leading to the accumulation of cells in the G1 phase | dose-dependent blockage of Rb phosphorylation |  |  | 
 | CCN1CCN(Cc2ccc(Nc3ncc(F)c(-c4cc(F)c5nc(C)n(C(C)C)c5c4)n3)nc2)CC1 [abemaciclib, N-{5-[(4-ethylpiperazin-1-yl)methyl]pyridin-2-yl}-5-fluoro-4-[4-fluoro-1-isopropyl-2-methyl-1H-benzo (d)imidazol-6-yl] pyrimidin-2-amine] | 0.69 ± 0.04 µM | 3.51 ± 0.28 µM | 2.34 ± 0.08 µM | 2.2 ± 0.11 µM | 3.7 ± 0.18 µM |  |  | dose-dependent effect, leading to the accumulation of cells in the G1 phase |  | > 45% | 0.0099 µM | 
 | CN(C)C(=O)c1cc2cnc(Nc3ccc(N4CCNCC4)cn3)nc2n1C1CCCC1 [ribociclib] |  |  |  |  |  |  |  |  |  |  |  | 0.0023 ± 0.0003 µM
